Earlier results, collected in US20050255458A1, “Drug discovery assays based on the biology of chronic disease” (priority 2002, published 2005).
Read-outs that look alike come from different tables or passages of the source.

Tests used:
[1] = system: LS 174T colon cancer cells; conditions: after the fourth day of treatment; cited from earlier work
[2] = system: metallothionein (MT); conditions: cited from earlier work
[3] = system: metallothionein (MT); conditions: non-transformed hepatocytes; cited from earlier work
[4] = system: ERK1/2; conditions: cited studies, various cells; cited from earlier work
[5] = system: metallothionein (MT); conditions: cited from earlier work; remark: listed apart in the source
[6] = system: obese (fa/fa) Zucker rats; conditions: chronic ICV microinjection; cited from earlier work
[7] = system: anagen hair follicles; conditions: cited from earlier work
[8] = system: genetically obese ob/ob or db/db mice; conditions: low dose injection, for several hours; cited from earlier work
[9] = 0.3-0.5 mmol/kg/day, from day 56; cited from earlier work
[10] = system: AR gene; conditions: 50 μg/ml, 4 hours, 21-day-old rats; cited from earlier work
[11] = system: ERK; conditions: cited from earlier work
[12] = system: TF; conditions: cited from earlier work
[13] = system: ERK1 and ERK2; conditions: 20 μm, 15 min; cited from earlier work
[14] = target: T1, long form leptin receptor (Rattus norvegicus, UniProt Q62959); conditions: CHO cells; cited from earlier work
T1 construct: expressed in transfected cells; host or cells: Chinese hamster ovary (CHO) cells
T1 sequence (Q62959 22-1162): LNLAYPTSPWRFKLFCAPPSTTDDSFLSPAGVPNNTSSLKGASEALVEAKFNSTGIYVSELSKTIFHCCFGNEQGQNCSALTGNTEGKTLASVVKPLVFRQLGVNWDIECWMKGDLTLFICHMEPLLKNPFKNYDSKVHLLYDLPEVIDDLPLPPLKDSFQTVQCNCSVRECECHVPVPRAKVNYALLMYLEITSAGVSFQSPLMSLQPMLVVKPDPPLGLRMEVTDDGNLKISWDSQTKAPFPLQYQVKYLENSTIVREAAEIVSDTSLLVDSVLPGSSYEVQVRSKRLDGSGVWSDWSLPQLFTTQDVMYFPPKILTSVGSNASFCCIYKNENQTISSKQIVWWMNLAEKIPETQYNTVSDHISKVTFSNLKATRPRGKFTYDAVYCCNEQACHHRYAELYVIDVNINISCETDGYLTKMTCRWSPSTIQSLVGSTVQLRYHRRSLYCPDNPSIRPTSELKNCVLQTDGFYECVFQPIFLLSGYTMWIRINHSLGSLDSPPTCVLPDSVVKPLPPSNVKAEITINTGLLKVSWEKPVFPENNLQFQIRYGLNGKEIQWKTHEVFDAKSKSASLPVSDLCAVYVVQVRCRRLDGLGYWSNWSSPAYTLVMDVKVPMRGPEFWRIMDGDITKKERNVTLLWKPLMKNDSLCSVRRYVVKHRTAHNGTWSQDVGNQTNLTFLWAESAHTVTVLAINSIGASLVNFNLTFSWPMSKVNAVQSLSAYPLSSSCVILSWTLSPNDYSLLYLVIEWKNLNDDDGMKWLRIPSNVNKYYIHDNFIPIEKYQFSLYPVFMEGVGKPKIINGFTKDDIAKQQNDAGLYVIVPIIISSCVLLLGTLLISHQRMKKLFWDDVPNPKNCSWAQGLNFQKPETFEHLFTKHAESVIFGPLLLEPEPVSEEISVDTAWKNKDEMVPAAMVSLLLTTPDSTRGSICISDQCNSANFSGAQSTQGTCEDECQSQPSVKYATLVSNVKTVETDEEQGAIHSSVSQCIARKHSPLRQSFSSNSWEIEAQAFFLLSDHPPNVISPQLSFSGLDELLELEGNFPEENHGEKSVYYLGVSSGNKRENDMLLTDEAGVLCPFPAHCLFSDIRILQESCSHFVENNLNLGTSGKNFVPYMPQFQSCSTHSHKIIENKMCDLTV

[15] = system: third intron enhancer of the TNFα gene; conditions: PBMC stimulated with TPA; cited from earlier work
[16] = system: AR gene; conditions: cited from earlier work
[17] = system: ML-1 human myeloblastic leukemic cells; conditions: cited from earlier work; for increase in ERK activity: 0.3 ng/ml
[18] = system: ERK; conditions: LNCaP; cited from earlier work
[19] = target: PTP1B (Homo sapiens, UniProt P18031); conditions: Huyer 1997; cited from earlier work
[20] = system: ‘Langerhans’ cells in nasal mucosa; conditions: topical; cited from earlier work
[21] = system: DC; conditions: inhaled; cited from earlier work
[22] = system: NF-κB; conditions: cited from earlier work
[23] = system: PFK-2/FBPase-2; conditions: diabetic animals, up to 15 days; cited from earlier work
[24] = obese Zucker rats; cited from earlier work
[25] = system: Rous sarcoma virus (RSV); conditions: cited from earlier work
[26] = system: Moloney murine leukemia virus (MMuLV); conditions: cited from earlier work
[27] = target: T2, ACE (Mus musculus, UniProt P09470); conditions: zofenopril 0.05 or 1, captopril 5, enalapril 0.5 mg/kg/day; 29 weeks; cited from earlier work
T2 sequence (P09470 35-1312): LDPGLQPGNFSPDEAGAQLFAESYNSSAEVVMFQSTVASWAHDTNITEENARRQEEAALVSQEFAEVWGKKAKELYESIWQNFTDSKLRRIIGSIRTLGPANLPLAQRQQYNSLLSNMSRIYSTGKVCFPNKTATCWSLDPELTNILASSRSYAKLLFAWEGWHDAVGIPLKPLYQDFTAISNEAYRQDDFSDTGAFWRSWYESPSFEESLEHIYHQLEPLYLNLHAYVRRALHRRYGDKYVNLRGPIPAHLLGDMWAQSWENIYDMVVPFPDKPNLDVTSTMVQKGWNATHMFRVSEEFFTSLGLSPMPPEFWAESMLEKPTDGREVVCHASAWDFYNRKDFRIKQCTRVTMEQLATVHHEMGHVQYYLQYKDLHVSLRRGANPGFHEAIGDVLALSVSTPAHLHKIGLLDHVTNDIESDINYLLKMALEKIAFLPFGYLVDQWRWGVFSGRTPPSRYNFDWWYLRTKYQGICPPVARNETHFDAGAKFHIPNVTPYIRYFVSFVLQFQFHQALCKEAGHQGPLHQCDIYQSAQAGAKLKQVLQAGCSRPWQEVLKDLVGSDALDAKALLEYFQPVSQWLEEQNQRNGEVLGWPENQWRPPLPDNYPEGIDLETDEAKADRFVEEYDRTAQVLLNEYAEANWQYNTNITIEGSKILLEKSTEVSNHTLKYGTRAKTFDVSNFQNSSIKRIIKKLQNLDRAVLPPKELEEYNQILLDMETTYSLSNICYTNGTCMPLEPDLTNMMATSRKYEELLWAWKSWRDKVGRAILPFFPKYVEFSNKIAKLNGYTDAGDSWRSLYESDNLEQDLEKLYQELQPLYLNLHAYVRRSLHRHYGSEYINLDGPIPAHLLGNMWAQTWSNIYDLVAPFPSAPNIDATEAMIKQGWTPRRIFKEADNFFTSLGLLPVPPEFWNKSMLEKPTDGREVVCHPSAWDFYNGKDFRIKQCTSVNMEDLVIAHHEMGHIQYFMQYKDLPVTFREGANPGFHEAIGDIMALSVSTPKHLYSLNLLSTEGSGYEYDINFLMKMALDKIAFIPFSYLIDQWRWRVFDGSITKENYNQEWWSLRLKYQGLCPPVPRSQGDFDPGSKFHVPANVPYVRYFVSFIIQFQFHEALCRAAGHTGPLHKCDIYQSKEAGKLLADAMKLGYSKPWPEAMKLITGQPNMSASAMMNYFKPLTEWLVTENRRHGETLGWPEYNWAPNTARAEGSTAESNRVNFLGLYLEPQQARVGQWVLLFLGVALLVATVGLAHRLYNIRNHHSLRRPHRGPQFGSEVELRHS

[28] = system: TF antigen; conditions: cited from earlier work
[29] = target: ACE (Homo sapiens, UniProt P12821); parameters: randomly assigned 9,297 high-risk patients; from tissue; host or cells: patients, in vivo; conditions: 5 mg/day, vs placebo; cited from earlier work
Chain of ACE (Homo sapiens, UniProt P12821) (P12821 30-1306): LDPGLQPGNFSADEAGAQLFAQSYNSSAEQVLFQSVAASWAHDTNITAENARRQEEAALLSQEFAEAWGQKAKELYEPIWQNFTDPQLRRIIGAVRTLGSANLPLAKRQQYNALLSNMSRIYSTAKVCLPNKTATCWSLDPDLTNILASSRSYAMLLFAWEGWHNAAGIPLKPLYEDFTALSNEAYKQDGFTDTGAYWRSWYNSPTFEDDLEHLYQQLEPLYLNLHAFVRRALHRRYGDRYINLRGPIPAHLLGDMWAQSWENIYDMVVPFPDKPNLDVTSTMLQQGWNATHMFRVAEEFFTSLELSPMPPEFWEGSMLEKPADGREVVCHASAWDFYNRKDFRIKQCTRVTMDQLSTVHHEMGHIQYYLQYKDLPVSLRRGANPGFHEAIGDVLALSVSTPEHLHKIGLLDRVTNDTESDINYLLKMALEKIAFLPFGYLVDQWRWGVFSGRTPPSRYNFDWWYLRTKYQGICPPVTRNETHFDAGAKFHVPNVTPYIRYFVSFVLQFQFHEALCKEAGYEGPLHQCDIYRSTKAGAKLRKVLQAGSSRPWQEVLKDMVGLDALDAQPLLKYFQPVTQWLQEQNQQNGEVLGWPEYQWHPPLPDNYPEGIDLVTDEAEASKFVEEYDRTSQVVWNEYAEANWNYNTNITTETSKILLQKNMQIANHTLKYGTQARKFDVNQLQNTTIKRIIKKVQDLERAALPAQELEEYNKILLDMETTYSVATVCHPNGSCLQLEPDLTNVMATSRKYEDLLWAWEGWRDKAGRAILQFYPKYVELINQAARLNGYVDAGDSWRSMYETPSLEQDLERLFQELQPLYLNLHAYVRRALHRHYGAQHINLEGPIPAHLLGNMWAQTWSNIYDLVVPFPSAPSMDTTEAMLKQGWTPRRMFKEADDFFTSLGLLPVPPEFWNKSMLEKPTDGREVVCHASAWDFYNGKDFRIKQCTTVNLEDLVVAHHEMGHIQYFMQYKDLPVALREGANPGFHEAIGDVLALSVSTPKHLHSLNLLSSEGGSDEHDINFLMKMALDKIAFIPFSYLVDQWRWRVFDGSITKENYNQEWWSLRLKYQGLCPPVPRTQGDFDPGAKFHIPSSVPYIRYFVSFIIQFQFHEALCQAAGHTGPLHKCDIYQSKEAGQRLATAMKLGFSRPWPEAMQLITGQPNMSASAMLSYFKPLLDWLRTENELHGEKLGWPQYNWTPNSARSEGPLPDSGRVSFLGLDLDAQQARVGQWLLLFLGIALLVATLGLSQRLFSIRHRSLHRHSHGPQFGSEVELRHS

Chain of PTP1B (P18031 whole entry, species assumed): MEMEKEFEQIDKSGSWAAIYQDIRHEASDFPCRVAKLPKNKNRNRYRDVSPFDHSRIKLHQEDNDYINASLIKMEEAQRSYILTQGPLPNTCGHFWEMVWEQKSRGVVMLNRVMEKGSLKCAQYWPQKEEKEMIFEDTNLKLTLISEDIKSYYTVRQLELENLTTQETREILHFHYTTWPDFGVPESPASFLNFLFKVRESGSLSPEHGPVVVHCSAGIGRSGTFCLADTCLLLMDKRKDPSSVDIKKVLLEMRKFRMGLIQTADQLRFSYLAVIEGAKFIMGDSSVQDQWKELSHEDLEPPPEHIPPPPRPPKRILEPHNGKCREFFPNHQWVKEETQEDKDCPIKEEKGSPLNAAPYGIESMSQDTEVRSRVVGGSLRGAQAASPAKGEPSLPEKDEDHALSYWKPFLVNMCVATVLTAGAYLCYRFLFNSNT

## CCCC(=O)[O-].[Na+] [sodium butyrate]
[1]
  growth of LS 174T cells: significant growth inhibition
[2]; OC15 EC, OC15 END cells
  MT mRNA levels: increased MT mRNA levels
[2]; OC15 carcinoma cells
  increase in MT mRNA: 20 fold
[3]
  increase in MT mRNA: 2-4 fold
[4]
  phosphorylation of ERK1/2: phosphorylation of ERK1/2
[5]
  MT synthesis: dose-dependent increase

## IL-1β: human recombinant IL-1β, an ERK agent
[6]
  decrease in nighttime food intake: 66.1%
[7]; Xiong 1997
  growth of isolated scalp hair: growth inhibition
[8]
  glucose blood levels: normalization of glucose blood levels

## Cc1occc(=O)c1[O-].Cc1occc(=O)c1[O-].[O]=[V+2] [bis(maltolato)oxovanadium]
[9]
  weight gain: decreased weight gain

## C[C@@H]1C[C@@H]([C@H](O)CC2CC(=O)NC(=O)C2)C(=O)[C@@H](C)C1 [cycloheximide]
[10]
  increase in AR mRNA: 1.7±0.4 fold
[11]; oocytes
  ERK phosphorylation: decreased ERK phosphorylation
[12]
  AGE-alb induced TF mRNA: completely suppressed

## CCCCCC1OC1CC=CCC=CCC=CCCCC(=O)O (stereo not shown) [14,15-EET, 14,15-epoxyeicosatrienoic acid]
[13]
  ERK1 and ERK2 phosphorylation: stimulated ERK1 and ERK2 phosphorylation

## leptin: an ERK agent that binds the long form leptin receptor
[14]
  tyrosine phosphorylation of STAT3 and ERK: increased tyrosine phosphorylation of STAT3 and ERK

## CCCCCCCCCCCCCC(=O)O[C@@H]1[C@@H](C)[C@@]2(O)[C@@H](C=C(CO)C[C@]3(O)C(=O)C(C)=C[C@@H]23)[C@@H]2C(C)(C)[C@]12OC(C)=O [TPA, phorbol 12-myristate 13-acetate]
[15]
  DNase-I hypersensitivity of the third intron enhancer of the TNFα gene: enhanced
[16]; Kumar 1998
  mouse AR mRNA: increase in mouse AR mRNA
[16]; Sertoli, 19 days old rats
  Effect on [mRNAAR]: ↓[mRNAAR]
[17]; 1 h
  increase in ERK activity: 6 fold
[17]; 3 h
  increase in ERK activity: 4 fold
[17]; 3-day 0.3 ng/ml, then 3 days without TPA
  ML-1 proliferation: cease proliferation
[7]; 6 days culture, A 23187 2 μM, TPA 1 μM, IL-1 100 ng per ml (Hoffmann 1997)
  hair growth: significantly inhibited hair growth
[7]; suspension culture (Harmon 1995), read-out: inhibition of total cumulative hair follicle growth
  IC50: 1 nM
[11]; Jurkat cells
  ERK phosphorylation: increased ERK phosphorylation
[18]
  Effect on [ERK^phos]: ↑[ERK^phos]
[4]
  phosphorylation of ERK1/2: phosphorylation of ERK1/2

## pervanadate
[19]
  PTP1B activity: inhibition

## CCC(=O)O[C@]1(C(=O)SCF)[C@H](C)C[C@H]2[C@@H]3C[C@H](F)C4=CC(=O)C=C[C@]4(C)[C@@]3(F)[C@@H](O)C[C@@]21C [FP, Fluticasone propionate]
[20]
  number of antigen-presenting ‘Langerhans’ cells in nasal mucosa: decreased the number of the antigen-presenting ‘Langerhans’ cells
[21]
  number of DC in asthma: decreased the number of DC in asthma
[22]
  NF-κB activation: decreases NF-κB activation

## [O]=[V]([O-])([O-])[O-] [vanadate, Vanadate (VO4^−3)]
[23]
  liver PFK-2/FBPase-2 mRNA content: progressive increase
[24]
  decrease in plasma glucose: 36%
  decrease in plasma insulin: 80%
[11]; as general PTP inhibitors
  ERK activation: activate ERK

## C/C=C/C/C=C/CCC(=O)[C@H]1O[C@H]1C(N)=O [cerulenin]
[25]
  virus production: inhibited
[26]
  virus production: drastically decreased

## CCOC(=O)[C@H](CCc1ccccc1)N[C@@H](C)C(=O)N1CCC[C@H]1C(=O)O [enalapril]
[27]
  total lesion area compared to placebo: no significant decrease in lesion area
[28]; day 3
  plasma TF antigen level: 205±14
[28]; day 28
  plasma TF antigen level: 169±13
[29]
  changes in mean absolute diameter, minimum absolute diameter, and percent diameter stenosis: no significant difference
